Data taken from patent publication US7348160B2, “Phosphoamidase assay” (Merck Patent GmbH, priority 2002, dated 2008).
Read-outs that look alike come from different tables or passages of the source.

How the values were obtained:
PHP1 [1] = biological target: T1, PHP1 (Homo sapiens, UniProt Q9NRX4); assay: Kinetic analysis of the conversion of FDP and DiFMUP by PHP1; format: biochemical; conditions: pH 7.0, 0.1 μM PHP1
T1 sequence (Q9NRX4 1-125): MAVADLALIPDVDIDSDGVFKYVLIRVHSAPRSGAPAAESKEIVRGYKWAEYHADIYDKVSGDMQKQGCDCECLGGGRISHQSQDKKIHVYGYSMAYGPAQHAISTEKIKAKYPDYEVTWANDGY
Experimental: The KM-values for DiFMUP and FDP can be approximated by recording the initial reaction velocity in dependence of the substrate concentration, as observed by the increase in relative fluorescence at the respective fluorescence emission maxima upon addition of PHP1. […] This effect limits the range of substrate variation. For FDP concentrations >20 μM the signal quenching disturbs reaction rate measurements detrimentally. […] Measurements for DiFMUP are limited to concentrations below 500 μM.
To start the reaction PHP1 was added from a stock solution to a final concentration of 0.1 in μM. The reaction was monitored by recording the increase in relative fluorescence at the respective fluorescence emission maxima in an SLM fluorescence spectrometer. To allow for quantification the fluorescence signal was normalised using a standard curve recorded for a serial dilution of fully dephosphorylated DiFMUP and FDP respectively. All recordings were carried out at the same PM-voltage and integration time with correction for the relative signal gain.

PHP1 [2] = biological target: T1, PHP1; assay: pH-dependence of conversion of fluorogenic and chromogenic substrates by PHP1; format: biochemical; conditions: for acceptance as substrate by PHP1: pH 5-9, 0.1 μM PHP1; for turnover rate by PHP1 in more alkaline media: pH above the maximum, up to pH 9
From the text: Because it is well known that the use of phospho fluorophores like DIFMUP, MUP, DDAO or FDP as phosphatase substrates have certain limitations due to the compatibility of the substrate pKa-values with the pH-optima of the respective phosphatase, the pH-dependence of the PHP1 reactivity towards the aforementioned fluorogenic substrates is to be determined. As shown in FIG. 1 the pH is varied from pH=5-9 in steps of 0.5 pH-units. In order to avoid undesired fluorescence flattening effects due to high absorption by the accumulating reaction product the initial reaction velocity is used as relative measure for the pH-dependence of PHP1-reactivity towards the selected substrate.
To start the reaction PHP1 was added from a pre dilution in the respective reaction buffer to yield a final concentration of 0.1 μM. The reaction was monitored by recording the increase in relative fluorescence at the respective fluorescence emission maxima (Fluoromax Gemini XL microplate reader).

PHP1 [3] = biological target: T1, PHP1; assay: Screening assay for inhibitors or activators of PHP1 with DiFMUP substrate; format: biochemical
Experimental: In order to test whether the phosphoamidase and protein phosphoamidase substrates of the present invention are suitable for the for identification of inhibitors or activators of these proteins, the activity of PHP1 was determined with the substrate DiFMUP in presence of bisperoxo-(bipyridine)-oxovanadate [(bp)V(bipy)], a well characterized inhibitor of protein phosphotyrosine phosphatase(FIG. 9). The inhibitor concentration varied from 0.01 to 30 μM, the enzyme concentration was kept at 0.1 μM and substrate concentration at 50 μM. After incubation for 15 min at room temperature the fluorescence was detected at 450 nm on excitation at 360 nm.
The reaction mixtures for inhibitor screening were prepared by serial 2 fold dilution of the inhibitor bpV(bipy) (Alexis Biochemicals San Diego) starting at 60 μM into 50 μl of the assay buffer consisting of 25 mM Hepes pH=7, 20 mM NaCl, 1 mM MgCl2, 0.01 mg/ml BSA. In a next step 50 μl of a solution of 0.3 μM PHP1 in assay buffer was added to each well and incubated for 5 min at room temperature. In order to initiate the reaction a pre dilution of 50 μM DiFMUP-substrate in assay-buffer was rapidly added to all wells. The reaction was monitored by recording the increase in relative fluorescence at the respective fluorescence emission maxima (Fluoromax Gemini XL microplate reader). The relative activity was calculated using the RFU derived from a control reaction without inhibitor.

[4] = biological target: T2, T-cell tyrosine phosphatase (Homo sapiens, UniProt P17706); conditions: from literature (Kerby et al. 2001); cited from earlier work
T2 sequence (P17706 1-415): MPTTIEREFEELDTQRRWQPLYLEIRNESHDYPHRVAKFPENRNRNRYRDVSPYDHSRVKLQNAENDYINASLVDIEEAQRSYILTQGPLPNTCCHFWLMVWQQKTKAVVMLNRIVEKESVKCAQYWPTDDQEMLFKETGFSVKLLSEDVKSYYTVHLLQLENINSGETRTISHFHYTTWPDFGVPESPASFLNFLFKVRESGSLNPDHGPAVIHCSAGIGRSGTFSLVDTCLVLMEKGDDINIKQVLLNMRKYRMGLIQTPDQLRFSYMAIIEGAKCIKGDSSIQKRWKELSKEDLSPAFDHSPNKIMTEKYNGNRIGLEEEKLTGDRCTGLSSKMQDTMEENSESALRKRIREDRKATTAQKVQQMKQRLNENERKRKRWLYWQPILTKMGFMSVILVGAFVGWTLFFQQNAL

[5] = 0.1 μM PHP1, 50 μM DiFMUP, inhibitor 0.01 to 30 μM

| Compound | acceptance as substrate by PHP1 (PHP1 [2]) | turnover rate by PHP1 in more alkaline media (PHP1 [2]) | also measured |
| --- | --- | --- | --- |
| fluorescein diphosphate [FDP] | accepts | second distinct maximum | Km (PHP1 [1]; non-linear curve fit, high uncertainty, read-out: Michaelis constant KM for PHP1): ~20 µM |
| bisperoxo-(bipyridine)-oxovanadate [(bp)V(bipy)] |  |  | concentration showing inhibitory effect on PHP1 (PHP1 [3]; [5]): above 10 μM; inhibition of PHP1 activity (PHP1 [3]; [5]): reproducible and clearly dose-dependent inhibition; activation of PHP1 activity (PHP1 [3]; equimolar concentrations (0.1 μM PHP1), 50 μM DiFMUP): by a factor of two |
| Cc1cc(=O)oc2c(F)c(OP(=O)(O)O)c(F)cc12 [DiFMUP, 6,8-difluoro-4-methylum-belliferyl phosphate] | accepts | decrease in turnover rate | Km [4]: 20 µM; Km (PHP1 [1]; estimated from Lineweaver-Burk plot, read-out: KM-value for PHP1): > 1000 µM |
| CC1(C)C2=C(Cl)C(=O)C(Cl)=CC2=Nc2ccc(OP(=O)(O)O)cc21 [DDAO, 9H-(1,3-dichloro-9,9-dimethyl-acridin-2-one-7-yl)phosphate] | accepts | stays relatively constant |  |
| O=[N+]([O-])c1ccc(OP(=O)(O)O)cc1 [pNPP, para-nitrophenol phosphate] | not recognised and processed by PHP1 at any pH |  |  |
